# Data: patent publication US6812028B1, “Embryogenesis and plant regeneration from microspores” (University of Guelph, priority 1999, dated 2004)
# Columns and labels:
# [1] = system: barley genotype Igri microspores; test: Effect of duration of pretreatment on embryo formation; assay type: cell-based
# Procedure: The effect of the duration of pre-treatment on embryogenesis from barley genotype Igri for spikes incubated with 0.3 mol/L mannitol at 4° C. Table 3 illustrates that as few as 4 days of pre-treatment drastically effects the number of embryos formed from microspores. Although the number formed increases up to 28 days of pre-treatment, only a 4 day period is required to achieve beneficial effects. […] However, duration of pre-treatment did appear to effect Oxbow as previously mentioned, and as illustrated in Table 2.
# barley microspores = test: Embryo induction and regeneration following pretreatment of barley genotypes; assay type: cell-based; settings: for % embryoid Regeneration: 500 embryos per plate; for Embryoids: average from 3 plates
# Procedure: Embryogenesis from thirty different barley genotypes was conducted according to the procedure in accordance with the present invention. Between 10,000 to 15,000 embryos were usually produced per plate. Table 2 illustrates some counts of embryos based on an average of three replications (plates). Not all thirty genotypes were counted. However, response of each genotype was judged on the basis of the appearance of plates after two weeks and again after 4 to 5 weeks. Random samples of 500 embryos were taken from the counted plates and placed on regeneration media to estimate the embryo regeneration ability. […] FIG. 4 illustrates barley c.v. Igri embryo development at 3 weeks (FIG. 4(a)) and 5 weeks (FIG. 4(b)) on filter paper placed on solidified induction media.
# Three different pre-treatments were compared within the genotype Igri and no apparent differences were observed relative to embryo induction or regeneration (Table 2). Lina normally responds well in microspore culture following a mannitol pre-treatment, but in this study using the combination of cold plus mannitol for 7 days, response was low. Thus, embryo formation was also counted in Lina when a 21 day cold pretreatment had been used and this response was more typical of Lina (Table 2). The regeneration response from the two pretreatment methods on Lina was similar. The frequency of fertile doubled haploids among the Lina progeny following the two pretreatments was not different, namely 79% after the combination 7-day treatment and 83% after the 21 day cold pretreatment.
# Embryogenesis was visually assessed in barley winter genotypes; OAC Elmira, GBC776, GBC779, GBC780 and GBC781, and spring genotypes, Trinity, Cooper, Golden Promise, Disa, Morex, Excel, Elrose, Bruce, Rodeo, H936 and Sabarilis. […] Under these conditions about 2,000 plants per 10^5 microspores, or about 200 plants per spike on responsive genotypes has been observed.
# [2] = GBC 777, pretreatment 4 d 0.3M man. 4° C.
# [3] = GBC 778, pretreatment 4 d 3.3M man. 4° C.
# [4] = Harrington, pretreatment 3 d 0.3M man. 4° C.
# [5] = Igri, pretreatment 4 d 0.3M man. 4° C.
# [6] = Igri, pretreatment 4 d 0.3M man. 25° C.
# [7] = Lina, pretreatment 7 d 0.3M man 4° C.
# [8] = Manley, pretreatment 4 d 0.3M man. 4° C.
# [9] = Oxbow, pretreatment 21 d 0.3M man. 4° C.
# [10] = cold plus mannitol pre-treatment 3 to 4 days, 0.3 mol/liter mannitol at 4° C., responsive genotypes
compound,measurement,setting,value
OC[C@@H](O)[C@@H](O)[C@H](O)[C@H](O)CO [mannitol],# Embryos formed,[1]; 4 d pretreatment of spikes at 4° C. in 0.3 mol/liter mannitol,9579
same,# Embryos formed,[1]; 7 d pretreatment of spikes at 4° C. in 0.3 mol/liter mannitol,9693
same,# Embryos formed,[1]; 14 d pretreatment of spikes at 4° C. in 0.3 mol/liter mannitol,8981
same,# Embryos formed,[1]; 21 d pretreatment of spikes at 4° C. in 0.3 mol/liter mannitol,9692
same,# Embryos formed,[1]; 28 d pretreatment of spikes at 4° C. in 0.3 mol/liter mannitol,10213
same,% embryoid Regeneration,barley microspores; [2],89%
same,Embryoids,barley microspores; [2],14133
same,% embryoid Regeneration,barley microspores; [3],84%
same,Embryoids,barley microspores; [3],7667
same,Embryoids,"barley microspores; GBC 782, pretreatment 3 d 0.3M man. 4° C.",14496
same,Embryoids,"barley microspores; GBC 783, pretreatment 3 d 0.3M man. 4° C.",11360
same,% embryoid Regeneration,barley microspores; [4],36%
same,Embryoids,barley microspores; [4],5533
same,% embryoid Regeneration,barley microspores; [5],97%
same,Embryoids,barley microspores; [5],12380
same,% embryoid Regeneration,barley microspores; [6],88%
same,Embryoids,barley microspores; [6],13504
same,frequency of fertile doubled haploids among the Lina progeny,"barley microspores; Lina, combination of cold plus mannitol for 7 days",79%
same,% embryoid Regeneration,barley microspores; [7],81%
same,Embryoids,barley microspores; [7],8921
same,% embryoid Regeneration,barley microspores; [8],74%
same,Embryoids,barley microspores; [8],11360
same,% embryoid Regeneration,barley microspores; [9],58%
same,Embryoids,barley microspores; [9],10810
same,plants per 10^5 microspores,barley microspores; [10],"about 2,000 plants per 10^5 microspores"
same,plants per spike,barley microspores; [10],about 200 plants per spike
